Reference: publication PMC10667265 (Scientific Reports, 2023)
Read-outs that look alike come from different tables or passages of the source. Where no end group is shown, it is not given here.

What was measured:
[1] = exogenous application to leaves; cited from earlier work
Text: In Arabidopsis, PIPs are encoded by 11 genes. […] Recently, the PAMP-induced peptides StPIP1 to StPIP4 were described in potato (Solanum tuberosum[23]).

[2] = infiltrated into the abaxial side of leaves of potato plants; methanolic extracts of leaf disks; details: potato (Solanum tuberosum cv. Désirée), 20 °C, up to 8 h
[3] = for amidated StPIP1_1 remaining: two independent experiments, n = 16 (Fig. 6A)
potato = details: used as control for Pep-13; cited from earlier work
Experimental: Potato plants (Solanum tuberosum cv. Désirée) were cultivated in sterile tissue culture in a phytochamber (16 h light, ~ 140 µE, 22 °C). Plants were transferred to steam-sterilized soil and grown for 4 weeks under long day conditions in a phytochamber (16 h light, ~ 140 µE, 60% humidity, 20 °C). PAMP treatment was performed with leaf disks that were cut out from 4-week-old potato plants with a biopsy puncher (4 mm diameter) and placed with the abaxial side onto the surface of 250 µl of water in a 96-well plate. The plate was incubated overnight at 22 °C in the dark. Water from the wells was re ...

Substance: TLGGIKAGPSPGEGHKVVNSHHQ [StPIP1]
- ROS production [1]: does not induce
- increases in the cytosolic Ca2+ concentrations [1]: does not induce

Substance: VWNQPVRGFKVYE-NH2
- cleaved bond [2]: E-NH2, within 30 min

Substance: RLPSGPSPRGPGH-NH2
- cleaved bond [2]: H-NH2, within minutes

Substance: VWNQPVRGFKVYE [acidic form of Pep-13]
- time within which the acidic form was degraded ([3]; after infiltration of 100 µM amidated Pep-13 into potato leaves, LC-MS (Fig. 6D)): ≤ 1 h

Substance: RLPSGPSPRGPGH-NH2 [StPIP1_1]
- amidated StPIP1_1 remaining ([3]; 100 µM amidated peptide infiltrated into leaves of phytochamber-grown potato plants, 30 min after infiltration, methanolic leaf extracts, LC-MS): 20%
- amidated StPIP1_1 remaining ([3]; 100 µM amidated peptide infiltrated into potato leaves, 1 h after infiltration, LC-MS): 10%

Substance: VWNQPVRGFKVYE-NH2 [Pep-13, reference compound]
- time within which the amidated peptide was converted to the acidic form ([3]; 100 µM amidated Pep-13 infiltrated into potato leaves, LC-MS, two independent experiments (Fig. 6C)): ≤ 30 min

Substance: VANQPVRGFKVYE [W2A]
- elicitor activity relative to Pep-13 (potato): nearly inactive
